Counter-ions that a name gives are not always drawn.
Assay: in vitro
Conditions: human, hek293t cells
With `Cc1cc(C(=O)CCl)c(C)n1CCC(C)C` [10-L03, 2-chloro-1-[2,5-dimethyl-1-(3-methylbutyl)-1H-pyrrol-3-yl]ethan-1-one] the viability at 48 h, 25 µM was 76.2%. With `COc1cc(OC)c(C(=O)CCl)c(OC)c1` [10-L04, 2-chloro-1-(2,4,6-trimethoxyphenyl)ethan-1-one] the viability at 48 h, 25 µM was 80.7%. For `COc1ccc2[nH]c(C)c(C(=O)CCl)c2c1` [10-L05, 2-chloro-1-(5-methoxy-2-methyl-1H-indol-3-yl)ethan-1-one], the viability at 48 h, 25 µM was 14.8%. In the case of `NC(=O)c1csc(C(=O)CCl)c1` [10-L06, 5-(2-chloroacetyl)thiophene-3-carboxamide], the viability at 48 h, 25 µM is reported as 66.2%. In the case of `Cc1cccc(-n2cc(C(=O)CCl)nn2)c1` [10-L07], the viability at 48 h, 25 µM is reported as 81.5%. With `O=C(CCl)c1cscn1` [10-L08, 2-chloro-1-(1,3-thiazol-4-yl)ethan-1-one] the viability at 48 h, 25 µM was 59.2%. Work on `Cc1ccc(S(=O)(=O)N2CCSSCC2)c(F)c1` [10-L09, 5-(2-fluoro-4-methylbenzenesulfonyl)-1,2,5-dithiazepane] yielded a viability at 48 h, 25 µM of 92.2%. With `CCCn1c(N)c(C(=O)CCl)c(=O)[nH]c1=O` [10-L10, 6-amino-5-(2-chloroacetyl)-1-propyl-1,2,3,4-tetrahydropyrimidine-2,4-dione] the viability at 48 h, 25 µM was 97.8%. With `COc1ccc(N2C(=O)C=CC2=O)c([N+](=O)[O-])c1` [10-L11, 1-(4-methoxy-2-nitrophenyl)-2,5-dihydro-1H-pyrrole-2,5-dione] the viability at 48 h, 25 µM was 100%. `COC(=O)Cc1ccc(C(=O)CCl)s1` [10-L12, methyl 2-[5-(2-chloroacetyl)thiophen-2-yl]acetate] gave a viability at 48 h, 25 µM of 76.1%. Compound `O=C(CCl)c1ccc(F)c(F)c1` [10-L13, 2-chloro-1-(3,4-difluorophenyl)ethan-1-one] has a viability at 48 h, 25 µM of 95.7%. With `N#CC(C(=O)CCl)c1nncn1-c1ccccc1` (stereo not drawn) [10-L14, 4-chloro-3-oxo-2-(4-phenyl-4H-1,2,4-triazol-3-yl)butanenitrile] the viability at 48 h, 25 µM was 83.7%. `Cn1c(=O)c(C(=O)CCl)c(N)n(Cc2ccccc2)c1=O` [10-L15, 6-amino-1-benzyl-5-(2-chloroacetyl)-3-methyl-1,2,3,4-tetrahydropyrimidine-2,4-dione] gave a viability at 48 h, 25 µM of 76.7%. `O=C(CCl)c1ccc(Cl)c(Cl)c1` [10-L16, 2-chloro-1-(3,4-dichlorophenyl)ethan-1-one] showed a viability at 48 h, 25 µM of 31.3%. Work on `O=C(CCl)c1cnc(N2CCCCC2)s1` [10-L17, 2-chloro-1-[2-(piperidin-1-yl)-1,3-thiazol-5-yl]ethan-1-one] yielded a viability at 48 h, 25 µM of 101%. `Cc1cc(C(=O)CCl)c(C)n1-c1ccc(Cl)c(C(F)(F)F)c1` [10-L18, 2-chloro-1-{1-[4-chloro-3-(trifluoromethyl)phenyl]-2,5-dimethyl-1H-pyrrol-3-yl}ethan-1-one] gave a viability at 48 h, 25 µM of 0.747%. In the case of `Cc1cc(F)c(C(=O)CCl)cc1F` [10-L19, 2-chloro-1-(2,5-difluoro-4-methylphenyl)ethan-1-one], the viability at 48 h, 25 µM is reported as 87%. Compound `Cc1cc(C(=O)CCl)c(C)n1-c1ccccc1` [10-L20, 2-chloro-1-(2,5-dimethyl-1-phenyl-1H-pyrrol-3-yl)ethan-1-one] has a viability at 48 h, 25 µM of 1.11%. With `O=C(Cc1cccc(F)c1)N1CCSSCC1` [10-L21, 1-(1,2,5-dithiazepan-5-yl)-2-(3-fluorophenyl)ethan-1-one] the viability at 48 h, 25 µM was 108%. In the case of `CC(=O)N1CCc2cc(C(=O)C(C)Cl)ccc21` (stereo not drawn) [10-L22, 1-(1-acetyl-2,3-dihydro-1H-indol-5-yl)-2-chloropropan-1-one], the viability at 48 h, 25 µM is reported as 82.9%. `O=C1CCc2cc(C(=O)CCl)ccc2N1` [10-M03, 6-(2-chloroacetyl)-1,2,3,4-tetrahydroquinolin-2-one] showed a viability at 48 h, 25 µM of 1.31%. With `CC(=O)NCc1ccc(C(=O)C(C)Cl)s1` (stereo not drawn) [10-M04, N-{[5-(2-chloropropanoyl)thiophen-2-yl]methyl}acetamide] the viability at 48 h, 25 µM was 93.5%. `Cc1oc(C(N)=O)cc1C(=O)CCl` [10-M05, 4-(2-chloroacetyl)-5-methylfuran-2-carboxamide] showed a viability at 48 h, 25 µM of 27.7%. In the case of `CC(Cl)C(=O)c1ccc(NC(=O)C(C)(C)C)cc1` (stereo not drawn) [10-M06, N-[4-(2-chloropropanoyl)phenyl]-2,2-dimethylpropanamide], the viability at 48 h, 25 µM is reported as 97.9%. `NC(=O)COc1ccc(C(=O)CCl)cc1` [10-M07, 2-[4-(2-chloroacetyl)phenoxy]acetamide] showed a viability at 48 h, 25 µM of 38.6%. `CC(Cl)C(=O)c1ccc2c(c1)CCC2` (stereo not drawn) [10-M08, 2-chloro-1-(2,3-dihydro-1H-inden-5-yl)propan-1-one] gave a viability at 48 h, 25 µM of 95.2%. For `O=C(CCl)c1ccncc1` [10-M09, 2-chloro-1-(pyridin-4-yl)ethan-1-one hydrochloride], the viability at 48 h, 25 µM was 79.1%. In the case of `O=C1C=CC(=O)N1c1ccc(F)cc1` [10-M10, 1-(4-fluorophenyl)-2,5-dihydro-1H-pyrrole-2,5-dione], the viability at 48 h, 25 µM is reported as 68.4%. In the case of `Cc1coc(C)c1C(=O)CCl` [10-M11, 2-chloro-1-(2,4-dimethylfuran-3-yl)ethan-1-one], the viability at 48 h, 25 µM is reported as 72.9%. For `CC(C)Cn1c(N)c(C(=O)CCl)c(=O)n(C)c1=O` [10-M12, 6-amino-5-(2-chloroacetyl)-3-methyl-1-(2-methylpropyl)-1,2,3,4-tetrahydropyrimidine-2,4-dione], the viability at 48 h, 25 µM was 97.1%. For `CC1CC(C(=O)CCl)CO1` (stereo not drawn) [10-M13, 2-chloro-1-(5-methyloxolan-3-yl)ethan-1-one], the viability at 48 h, 25 µM was 102%. Compound `Cc1cc(C(=O)CCl)c(C)n1Cc1ccccc1` [10-M14, 1-(1-benzyl-2,5-dimethyl-1H-pyrrol-3-yl)-2-chloroethan-1-one] has a viability at 48 h, 25 µM of 78.4%. `O=C(CCl)C1CC12CCOCC2` (stereo not drawn) [10-M15, 2-chloro-1-{6-oxaspiro[2.5]octan-1-yl}ethan-1-one] showed a viability at 48 h, 25 µM of 108%. Work on `O=C(c1ccccc1)c1cc(Cl)ccc1N1C(=O)C=CC1=O` [10-M16, 1-(2-benzoyl-4-chlorophenyl)-2,5-dihydro-1H-pyrrole-2,5-dione] yielded a viability at 48 h, 25 µM of 48.7%. With `O=C(CCl)COc1ccc(Cl)cc1` [10-M17, 1-chloro-3-(4-chlorophenoxy)propan-2-one] the viability at 48 h, 25 µM was 26.1%. For `Cc1nc(C)c(S(=O)(=O)N2CCSSCC2)s1` [10-M18, 5-[(2,4-dimethyl-1,3-thiazol-5-yl)sulfonyl]-1,2,5-dithiazepane], the viability at 48 h, 25 µM was 90.2%. Compound `Cn1cc(C(=O)CCl)nn1` [10-M19, 2-chloro-1-(1-methyl-1H-1,2,3-triazol-4-yl)ethan-1-one] has a viability at 48 h, 25 µM of 68.1%. `O=C1CCCc2cc(C(=O)CCl)ccc2N1` [10-M20, 7-(2-chloroacetyl)-2,3,4,5-tetrahydro-1H-1-benzazepin-2-one] showed a viability at 48 h, 25 µM of 80.5%. With `Cc1oc(C(=O)O)cc1C(=O)CCl` [10-M21, 4-(2-chloroacetyl)-5-methylfuran-2-carboxylic acid] the viability at 48 h, 25 µM was 91%. For `c1nc(N2CCSSCC2)c2c3c(sc2n1)CCCC3` [10-M22, 3-(1,2,5-dithiazepan-5-yl)-8-thia-4,6-diazatricyclo[7.4.0.0,2,7]trideca-1(9),2,4,6-tetraene], the viability at 48 h, 25 µM was 78.3%. In the case of `CC(=O)NCCc1ccc(C(=O)CCl)cc1` [10-N03, N-{2-[4-(2-chloroacetyl)phenyl]ethyl}acetamide], the viability at 48 h, 25 µM is reported as 85.6%. For `Cn1c(-c2ccccc2)c(C(=O)CCl)c2ccccc21` [10-N04, 2-chloro-1-(1-methyl-2-phenyl-1H-indol-3-yl)ethan-1-one], the viability at 48 h, 25 µM was 1.67%. Compound `COc1ccc(C(=O)CCl)c2c1C(=O)CO2` [10-N05, 7-(2-chloroacetyl)-4-methoxy-2,3-dihydro-1-benzofuran-3-one] has a viability at 48 h, 25 µM of 92.2%. `CC(C)CC(=O)Nc1ccc(C(=O)CCl)cc1` [10-N06, N-[4-(2-chloroacetyl)phenyl]-3-methylbutanamide] gave a viability at 48 h, 25 µM of 11.7%. `Cc1ccc(N2C(=O)C=CC2=O)c(C)c1` [10-N07, 1-(2,4-dimethylphenyl)-2,5-dihydro-1H-pyrrole-2,5-dione] gave a viability at 48 h, 25 µM of 102%. Work on `Cc1nc(C)c(C(=O)CCl)o1` [10-N08, 2-chloro-1-(2,4-dimethyl-1,3-oxazol-5-yl)ethan-1-one] yielded a viability at 48 h, 25 µM of 76.1%. Work on `O=[N+]([O-])c1ccccc1S(=O)(=O)N1CCSSCC1` [10-N09, 5-(2-nitrobenzenesulfonyl)-1,2,5-dithiazepane] yielded a viability at 48 h, 25 µM of 117%. Compound `N#CC(C(=O)CCl)=C1NC2=C(CCc3ccccc32)S1` [10-N10, 4-chloro-2-{1H,2H,4H,5H-naphtho[1,2-d][1,3]thiazol-2-ylidene}-3-oxobutanenitrile] has a viability at 48 h, 25 µM of 12.3%. Compound `CCOC(=O)C(C#N)=Cc1ccc(N2C(=O)C=CC2=O)cc1` [10-N11, ethyl 2-cyano-3-[4-(2,5-dioxo-2,5-dihydro-1H-pyrrol-1-yl)phenyl]prop-2-enoate] has a viability at 48 h, 25 µM of 93.1%. For `COCCn1c(N)c(C(=O)CCl)c(=O)[nH]c1=O` [10-N12, 6-amino-5-(2-chloroacetyl)-1-(2-methoxyethyl)-1,2,3,4-tetrahydropyrimidine-2,4-dione], the viability at 48 h, 25 µM was 103%. `Cc1ccc(N2C(=O)C=CC2=O)c([N+](=O)[O-])c1` [10-N13, 1-(4-methyl-2-nitrophenyl)-2,5-dihydro-1H-pyrrole-2,5-dione] gave a viability at 48 h, 25 µM of 133%. With `Cc1cc(C(=O)CCl)c(C)n1-c1ccc(S(N)(=O)=O)cc1` [10-N14, 4-[3-(2-chloroacetyl)-2,5-dimethyl-1H-pyrrol-1-yl]benzene-1-sulfonamide] the viability at 48 h, 25 µM was 85.8%. In the case of `COc1ccc(OC)c(N2C(=O)C=CC2=O)c1` [10-N15, 1-(2,5-dimethoxyphenyl)-2,5-dihydro-1H-pyrrole-2,5-dione], the viability at 48 h, 25 µM is reported as 110%. In the case of `Cc1cc(C(=O)CCl)c(C)n1CCc1ccc(Cl)cc1` [10-N16, 2-chloro-1-{1-[2-(4-chlorophenyl)ethyl]-2,5-dimethyl-1H-pyrrol-3-yl}ethan-1-one], the viability at 48 h, 25 µM is reported as 0.625%. In the case of `Cc1cc(C(=O)CCl)c(C)n1Cc1ccc(F)cc1` [10-N17, 2-chloro-1-{1-[(4-fluorophenyl)methyl]-2,5-dimethyl-1H-pyrrol-3-yl}ethan-1-one], the viability at 48 h, 25 µM is reported as 6.45%. Compound `Cc1cc(C(=O)CCl)c(C)n1-c1cccc(Cl)c1` [10-N18, 2-chloro-1-[1-(3-chlorophenyl)-2,5-dimethyl-1H-pyrrol-3-yl]ethan-1-one] has a viability at 48 h, 25 µM of 0.68%. In the case of `CCn1cc(S(=O)(=O)N2CCSSCC2)cn1` [10-N19, 5-[(1-ethyl-1H-pyrazol-4-yl)sulfonyl]-1,2,5-dithiazepane], the viability at 48 h, 25 µM is reported as 109%.

From publication PMC11995724, “Antibiotic target discovery by integrated phenotypic and activity-based profiling of electrophilic fragments” (Cell chemical biology, 2025)
